Ki and k2 data for 4 compounds are collected here from ChEMBL document CHEMBL1129337, “Aristeromycin-5'-carboxaldehyde: a potent inhibitor of S-adenosyl-L-homocysteine hydrolase” (J Med Chem, 1996).

Experiment [1] addresses T1, Adenosylhomocysteinase (Homo sapiens, UniProt P23526). Nature of the experiment: Binding affinity towards purified recombinant human placental S-adenosyl-L-homocysteine hydrolase.
Target sequence in this assay (P23526 whole entry): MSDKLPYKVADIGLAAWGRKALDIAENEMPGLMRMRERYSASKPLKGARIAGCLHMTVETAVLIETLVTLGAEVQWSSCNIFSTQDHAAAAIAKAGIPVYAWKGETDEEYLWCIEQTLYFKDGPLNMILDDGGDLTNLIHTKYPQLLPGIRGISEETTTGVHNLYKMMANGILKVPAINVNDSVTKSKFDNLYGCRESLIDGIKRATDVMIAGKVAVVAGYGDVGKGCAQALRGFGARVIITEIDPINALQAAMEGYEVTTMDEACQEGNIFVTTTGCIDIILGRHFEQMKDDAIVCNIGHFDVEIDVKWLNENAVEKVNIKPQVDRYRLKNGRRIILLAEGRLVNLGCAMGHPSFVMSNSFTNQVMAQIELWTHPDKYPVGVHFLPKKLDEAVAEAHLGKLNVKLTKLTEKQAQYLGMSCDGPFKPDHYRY
In experiment [2] the target is T1, Adenosylhomocysteinase.
Target sequence in this assay (P23526 2-432 limits assumed): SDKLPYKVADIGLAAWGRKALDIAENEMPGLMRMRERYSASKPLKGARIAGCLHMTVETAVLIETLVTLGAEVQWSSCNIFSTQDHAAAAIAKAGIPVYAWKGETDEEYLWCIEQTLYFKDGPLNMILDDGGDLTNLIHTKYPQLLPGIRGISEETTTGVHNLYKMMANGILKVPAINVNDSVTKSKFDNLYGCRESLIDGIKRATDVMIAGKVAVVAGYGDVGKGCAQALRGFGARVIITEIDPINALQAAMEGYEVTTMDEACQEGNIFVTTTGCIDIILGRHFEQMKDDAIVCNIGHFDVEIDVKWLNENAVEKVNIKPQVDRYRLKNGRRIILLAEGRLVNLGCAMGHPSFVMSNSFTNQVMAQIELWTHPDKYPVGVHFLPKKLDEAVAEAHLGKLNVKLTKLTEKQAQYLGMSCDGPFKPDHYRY
Description: Apparent inactivation rate constant (k2) for S-adenosyl-L-homocysteine hydrolase

For orientation: Ki means a measure of affinity in units of concentration, obtained from inhibition or displacement. With `Nc1ncnc2c1ncn2[C@@H]1C[C@@H](C=O)[C@@H](O)[C@H]1O`, the Ki at Adenosylhomocysteinase [1] turned out to be 273 nM. The compound also came in with a k2 on Adenosylhomocysteinase [2] of 1.2 min⁻¹.

As to `Nc1ncnc2c1ncn2[C@@H]1C[C@H](C=O)[C@@H](O)[C@H]1O`, the Ki at Adenosylhomocysteinase [1] was found to be 4500 nM. Besides, the k2 on Adenosylhomocysteinase [2] stood at 0.37 min⁻¹.

Consider `Nc1ncnc2c1ncn2[C@@H]1O[C@H](C=O)[C@@H](O)[C@H]1O`, for which, on Adenosylhomocysteinase [1], the Ki stood at 43 nM. Moreover, at Adenosylhomocysteinase [2], the k2 turned out to be 0.22 min⁻¹.

With `Nc1ncnc2c1ncn2[C@@H]1O[C@@H](C=O)[C@@H](O)[C@H]1O`, the Ki at Adenosylhomocysteinase [1] was 39 nM. Also, the k2 at Adenosylhomocysteinase [2] amounted to 0.65 min⁻¹.
